From publication PMC7838546, “A Thermostable, Modified Cathelicidin-Derived Peptide With Enhanced Membrane-Active Activity Against Salmonella enterica serovar Typhimurium” (Frontiers in Microbiology, 2021)
Ends that are not written are not given here.

Columns and labels:
Experiment in all cases: MIC/MBC, broth microdilution and colony count
Assay type in all cases: cell-based, Salmonella enterica serovar Typhimurium
[1] = test system: S. enterica serovar Typhimurium H1-062 (clinical isolate); conditions: H1-062, stool, resistant Amc, Amp, Ctx, C, NA, T, intermediate Cp, broth microdilution, 37°C, 24 h
Protocol: (§1) Salmonella enterica serovar Typhimurium ATCC 13311, 24 drug-resistant foodborne and eleven drug-resistant human borne S. enterica serovar Typhimurium and 4,5,12:i:- isolates (Table 1) were used as test microorganisms. They were previously isolated for molecular characterization in 2014 and kindly provided by Dr. Soraya Chaturongakul (Mahidol University, Thailand) ([Huoy et al., 2014]). All bacteria were cultured in Tryptic Soy Broth (TSB) and incubated at 37°C for 18 h. Mueller Hinton Broth (MHB) was then used to wash and rinse the bacteria. The bacterial suspensions were then diluted to obtain concentrations of 10^7 CFU/ml for inoculations.
(§2) A modified version of the National Committee for Clinical Laboratory Standards (NCCLS) broth microdilution method ([Steinberg et al., 1997]) was used to determine the minimum inhibitory concentrations (MICs) of peptide and compared to that of nisin. Fifty microliters of two-fold serial dilutions of each peptide [0.98–250 μg/ml in 0.01% (v/v) acetic acid and 0.2% (w/v) bovine serum albumin (BSA, Sigma-Aldrich, MO, United States)], were incubated with 50 μl of bacterial suspensions (approximately 10^7 CFU/ml) at 37°C for 24 h in a shaking incubator. MICs were taken as the lowest concentration of peptide at which growth was inhibited as observed by visual inspection. Bacterial cultures without peptides and uncultured broth were used as positive and negative controls, respectively. Minimal bactericidal concentrations (MBCs) were determined using a colony count assay ([Clinical Laboratory Standards Institute [CLSI], 2015]). Fifty microliters of samples from each non-turbid well in the MIC determination experiment was plated on Mueller Hinton Agar (MHA) and colonies were observed after overnight incubation at 37°C. MBCs were designated as the least concentration showing no colony growth on the plate. All of experiments were performed in triplicate.

[2] = test system: S. enterica serovar Typhimurium H1-015 (clinical isolate); conditions: H1-015, boot swab, resistant Amp, intermediate Cp, broth microdilution, 37°C, 24 h
Protocol: as §1, §2

[3] = test system: S. enterica serovar Typhimurium H1-006 (clinical isolate); conditions: H1-006, blood; resistant NA; intermediate S, Cp; broth microdilution, 37°C, 24 h
Protocol: as §1, §2

[4] = test system: S. enterica serovar Typhimurium H1-001 (clinical isolate); conditions: H1-001, blood, resistant Amp, Ctx, C, Cp, NA, T, intermediate Amc, broth microdilution, 37°C, 24 h
Protocol: as §1, §2

Measured: MIC

Nisin: authorized food preservative peptide, binds lipid II and forms membrane pores (ITSISLCTPGCKTGALMGCNMKTATCHCSIHVSK; cysteine pairing not given here; also: lantibiotic nisin-A; UniProt P13068 24-57, looked up)
>1000 µg/mL: all assays above
